This passage reports solid form stability results from patent publication US10946027B2, “Tianeptine oxalate salts and polymorphs” (Tonix Pharma Holdings Limited, priority 2016, dated 2021).

Like-named read-outs stand apart in the source and are kept apart here.

Turning to `CN1c2ccccc2C(NCCCCCCC(=O)O)c2ccc(Cl)cc2S1(=O)=O.O=C(O)C(=O)O` (centres unmarked) [Tianeptine mono-oxalate Form A, Tianeptine Mono-Oxalate Form A], the solid form stability result is, setting by setting: (40-60° C., high humidity (75% RH)) “started to convert into tianeptine hemi-oxalate Form A”; (milled without water) “stable”; (stored at 25° C. and 60-75% RH) “stable”; (stored at 40-60° C. without humidity (RH≈0%)) “stable”; (water kneading) “started to convert into tianeptine hemi-oxalate Form A”.
